Laboratory results taken from ChEMBL document CHEMBL3885861, “Open TG-GATES”.

Organism: Rattus norvegicus
Test: Open TG-GATES - Regimen: Single
Assay type: toxicity, organism-based, Sprague-Dawley
Design: regimen Single, gender Male, age 6 weeks
Conditions: in vivo, po, route gavage; for APTT / Bas / Eos / Fbg / Hb / Ht / Lym / MCH / MCHC / MCV / Mono / Neu / PT / Plat / RBC / Ret / WBC: tissue Blood; for KIDNEY_L / KIDNEY_R / KIDNEY_TOTAL: tissue Kidney; for LIVER: tissue Liver; for A/G / ALP / ALT / AST / BUN / CRE / Ca / Cl / DBIL / GLC / IP / K / LDH / Na / PL / RALB / TBIL / TC / TG / TP / gamma-GTP: tissue Plasma
[1] = 300 mg/kg, 3 h, dose level Middle
[2] = 300 mg/kg, 6 h, dose level Middle
[3] = 300 mg/kg, 9 h, dose level Middle
[4] = 300 mg/kg, 24 h, dose level Middle
[5] = 1000 mg/kg, 3 h, dose level High
[6] = 1000 mg/kg, 6 h, dose level High
[7] = 1000 mg/kg, 9 h, dose level High
[8] = 1000 mg/kg, 24 h, dose level High

CC(=O)Nc1ccc2c(c1)Cc1ccccc1-2 [2-ACETYLAMINOFLUORENE]
TERMINAL_BW [1]: 222.8 g
APTT [1]: 19.8 s
Bas [1]: 0.4%
Eos [1]: 1.2%
Fbg [1]: 222.4 mg/dL
Hb [1]: 13.9 g/dL
Ht [1]: 39.7%
Lym [1]: 69.8%
MCH [1]: 22.1 pg
MCHC [1]: 34.9%
MCV [1]: 63.3 fL
Mono [1]: 2.8%
Neu [1]: 25.4%
PT [1]: 12 s
Plat [1]: 131.6 x10_4/uL
RBC [1]: 626.2 x10_4/ul
Ret [1]: 7.1%
WBC [1]: 74.2 x10_2/uL
KIDNEY_L [1]: 1 g
KIDNEY_R [1]: 0.9 g
KIDNEY_TOTAL [1]: 1.9 g
LIVER [1]: 10.3 g
A/G [1]: 1.7
ALP [1]: 922.4 IU/L
ALT [1]: 39 IU/L
AST [1]: 78 IU/L
BUN [1]: 12.8 mg/dL
CRE [1]: 0.4 mg/dL
Ca [1]: 10.8 mg/dL
Cl [1]: 103.8 meq/L
DBIL [1]: 0.07 mg/dL
GLC [1]: 201.6 mg/dL
IP [1]: 10.2 mg/dL
K [1]: 3.9 meq/L
LDH [1]: 195.8 IU/L
Na [1]: 141.6 meq/L
PL [1]: 133.2 mg/dL
RALB [1]: 3.6 g/dL
TBIL [1]: 0.1 mg/dL
TC [1]: 74.6 mg/dL
TG [1]: 62.6 mg/dL
TP [1]: 5.7 g/dL
gamma-GTP [1]: 1.4 IU/L
TERMINAL_BW [2]: 219.1 g
APTT [2]: 20 s
Bas [2]: 0.6%
Eos [2]: 0.8%
Fbg [2]: 224.8 mg/dL
Hb [2]: 14.4 g/dL
Ht [2]: 41.9%
Lym [2]: 77.2%
MCH [2]: 21.9 pg
MCHC [2]: 34.4%
MCV [2]: 63.5 fL
Mono [2]: 2.2%
Neu [2]: 18.8%
PT [2]: 12.8 s
Plat [2]: 128 x10_4/uL
RBC [2]: 661.8 x10_4/ul
Ret [2]: 7.2%
WBC [2]: 67.5 x10_2/uL
KIDNEY_L [2]: 1 g
KIDNEY_R [2]: 1 g
KIDNEY_TOTAL [2]: 2 g
LIVER [2]: 10 g
A/G [2]: 1.6
ALP [2]: 837.8 IU/L
ALT [2]: 31.6 IU/L
AST [2]: 67.6 IU/L
BUN [2]: 12.2 mg/dL
CRE [2]: 0.5 mg/dL
Ca [2]: 10.8 mg/dL
Cl [2]: 102.6 meq/L
DBIL [2]: 0.068 mg/dL
GLC [2]: 218.2 mg/dL
IP [2]: 9.1 mg/dL
K [2]: 3.8 meq/L
LDH [2]: 191.4 IU/L
Na [2]: 141 meq/L
PL [2]: 144.4 mg/dL
RALB [2]: 3.5 g/dL
TBIL [2]: 0.1 mg/dL
TC [2]: 85.2 mg/dL
TG [2]: 32.6 mg/dL
TP [2]: 5.6 g/dL
gamma-GTP [2]: 1.2 IU/L
TERMINAL_BW [3]: 215.7 g
APTT [3]: 18.1 s
Bas [3]: 0.2%
Eos [3]: 0.6%
Fbg [3]: 233.8 mg/dL
Hb [3]: 13.9 g/dL
Ht [3]: 40.7%
Lym [3]: 74%
MCH [3]: 21.4 pg
MCHC [3]: 34.2%
MCV [3]: 62.5 fL
Mono [3]: 2.8%
Neu [3]: 21.8%
PT [3]: 13 s
Plat [3]: 136.5 x10_4/uL
RBC [3]: 652 x10_4/ul
Ret [3]: 7.4%
WBC [3]: 80.9 x10_2/uL
KIDNEY_L [3]: 1 g
KIDNEY_R [3]: 1 g
KIDNEY_TOTAL [3]: 1.9 g
LIVER [3]: 9.7 g
A/G [3]: 1.6
ALP [3]: 756.6 IU/L
ALT [3]: 31.4 IU/L
AST [3]: 68 IU/L
BUN [3]: 10.4 mg/dL
CRE [3]: 0.4 mg/dL
Ca [3]: 10.5 mg/dL
Cl [3]: 103.4 meq/L
DBIL [3]: 0.06 mg/dL
GLC [3]: 206.4 mg/dL
IP [3]: 8.9 mg/dL
K [3]: 4 meq/L
LDH [3]: 184.6 IU/L
Na [3]: 140.2 meq/L
PL [3]: 125 mg/dL
RALB [3]: 3.5 g/dL
TBIL [3]: 0.1 mg/dL
TC [3]: 72.2 mg/dL
TG [3]: 32.2 mg/dL
TP [3]: 5.7 g/dL
gamma-GTP [3]: 1.2 IU/L
TERMINAL_BW [4]: 220.9 g
APTT [4]: 19.1 s
Bas [4]: 0.6%
Eos [4]: 1%
Fbg [4]: 210.8 mg/dL
Hb [4]: 14.5 g/dL
Ht [4]: 41.9%
Lym [4]: 75.2%
MCH [4]: 22.2 pg
MCHC [4]: 34.8%
MCV [4]: 63.7 fL
Mono [4]: 3.2%
Neu [4]: 19.8%
PT [4]: 14.4 s
Plat [4]: 131.6 x10_4/uL
RBC [4]: 657.8 x10_4/ul
Ret [4]: 5.9%
WBC [4]: 77.9 x10_2/uL
KIDNEY_L [4]: 1 g
KIDNEY_R [4]: 1 g
KIDNEY_TOTAL [4]: 2 g
LIVER [4]: 11 g
A/G [4]: 1.7
ALP [4]: 865 IU/L
ALT [4]: 35.4 IU/L
AST [4]: 74 IU/L
BUN [4]: 15.6 mg/dL
CRE [4]: 0.4 mg/dL
Ca [4]: 10.6 mg/dL
Cl [4]: 105.2 meq/L
DBIL [4]: 0.098 mg/dL
GLC [4]: 196.6 mg/dL
IP [4]: 9.1 mg/dL
K [4]: 4.3 meq/L
LDH [4]: 212.8 IU/L
Na [4]: 140.6 meq/L
PL [4]: 117 mg/dL
RALB [4]: 3.3 g/dL
TBIL [4]: 0.2 mg/dL
TC [4]: 52 mg/dL
TG [4]: 75.8 mg/dL
TP [4]: 5.2 g/dL
gamma-GTP [4]: 1.2 IU/L
TERMINAL_BW [5]: 222.5 g
APTT [5]: 20.1 s
Bas [5]: 0.6%
Eos [5]: 1%
Fbg [5]: 233.2 mg/dL
Hb [5]: 14.2 g/dL
Ht [5]: 41%
Lym [5]: 73%
MCH [5]: 21.9 pg
MCHC [5]: 34.7%
MCV [5]: 63.3 fL
Mono [5]: 3%
Neu [5]: 21.6%
PT [5]: 12 s
Plat [5]: 122.7 x10_4/uL
RBC [5]: 648.8 x10_4/ul
Ret [5]: 7.5%
WBC [5]: 60.1 x10_2/uL
KIDNEY_L [5]: 1 g
KIDNEY_R [5]: 1 g
KIDNEY_TOTAL [5]: 2 g
LIVER [5]: 10.4 g
A/G [5]: 1.6
ALP [5]: 850.2 IU/L
ALT [5]: 41.4 IU/L
AST [5]: 84 IU/L
BUN [5]: 12.4 mg/dL
CRE [5]: 0.5 mg/dL
Ca [5]: 10.9 mg/dL
Cl [5]: 102.4 meq/L
DBIL [5]: 0.078 mg/dL
GLC [5]: 218.8 mg/dL
IP [5]: 10.5 mg/dL
K [5]: 3.8 meq/L
LDH [5]: 209.6 IU/L
Na [5]: 140.8 meq/L
PL [5]: 151.6 mg/dL
RALB [5]: 3.6 g/dL
TBIL [5]: 0.1 mg/dL
TC [5]: 87.4 mg/dL
TG [5]: 68.8 mg/dL
TP [5]: 5.9 g/dL
gamma-GTP [5]: 1.2 IU/L
TERMINAL_BW [6]: 215.7 g
APTT [6]: 19.6 s
Bas [6]: 0.8%
Eos [6]: 1.2%
Fbg [6]: 227.2 mg/dL
Hb [6]: 14.4 g/dL
Ht [6]: 41.6%
Lym [6]: 73.6%
MCH [6]: 21.9 pg
MCHC [6]: 34.6%
MCV [6]: 63.4 fL
Mono [6]: 1.8%
Neu [6]: 22.8%
PT [6]: 12.9 s
Plat [6]: 126.1 x10_4/uL
RBC [6]: 656.8 x10_4/ul
Ret [6]: 7.5%
WBC [6]: 35.4 x10_2/uL
KIDNEY_L [6]: 0.9 g
KIDNEY_R [6]: 0.9 g
KIDNEY_TOTAL [6]: 1.8 g
LIVER [6]: 9.7 g
A/G [6]: 1.7
ALP [6]: 1010.2 IU/L
ALT [6]: 37.4 IU/L
AST [6]: 72.6 IU/L
BUN [6]: 14.4 mg/dL
CRE [6]: 0.5 mg/dL
Ca [6]: 10.7 mg/dL
Cl [6]: 102 meq/L
DBIL [6]: 0.074 mg/dL
GLC [6]: 251.2 mg/dL
IP [6]: 9.7 mg/dL
K [6]: 4 meq/L
LDH [6]: 228.6 IU/L
Na [6]: 140.6 meq/L
PL [6]: 133.6 mg/dL
RALB [6]: 3.6 g/dL
TBIL [6]: 0.1 mg/dL
TC [6]: 83.8 mg/dL
TG [6]: 26.6 mg/dL
TP [6]: 5.8 g/dL
gamma-GTP [6]: 1.4 IU/L
TERMINAL_BW [7]: 214.2 g
APTT [7]: 18.7 s
Bas [7]: 0.6%
Eos [7]: 0.6%
Fbg [7]: 252.4 mg/dL
Hb [7]: 14.8 g/dL
Ht [7]: 42.6%
Lym [7]: 68.8%
MCH [7]: 22 pg
MCHC [7]: 34.7%
MCV [7]: 63.3 fL
Mono [7]: 3.6%
Neu [7]: 25%
PT [7]: 13.1 s
Plat [7]: 130.1 x10_4/uL
RBC [7]: 673.2 x10_4/ul
Ret [7]: 7.4%
WBC [7]: 46.2 x10_2/uL
KIDNEY_L [7]: 1 g
KIDNEY_R [7]: 0.9 g
KIDNEY_TOTAL [7]: 1.9 g
LIVER [7]: 10.4 g
A/G [7]: 1.5
ALP [7]: 751.4 IU/L
ALT [7]: 33 IU/L
AST [7]: 64.8 IU/L
BUN [7]: 13.4 mg/dL
CRE [7]: 0.5 mg/dL
Ca [7]: 11.1 mg/dL
Cl [7]: 104.6 meq/L
DBIL [7]: 0.066 mg/dL
GLC [7]: 225.4 mg/dL
IP [7]: 9.7 mg/dL
K [7]: 4.2 meq/L
LDH [7]: 196.8 IU/L
Na [7]: 141.4 meq/L
PL [7]: 160.4 mg/dL
RALB [7]: 3.6 g/dL
TBIL [7]: 0.1 mg/dL
TC [7]: 90 mg/dL
TG [7]: 34.4 mg/dL
TP [7]: 6 g/dL
gamma-GTP [7]: 1 IU/L
TERMINAL_BW [8]: 212.5 g
APTT [8]: 20.3 s
Bas [8]: 0.4%
Eos [8]: 0.8%
Fbg [8]: 209.6 mg/dL
Hb [8]: 14.7 g/dL
Ht [8]: 42.1%
Lym [8]: 67.2%
MCH [8]: 21.8 pg
MCHC [8]: 35%
MCV [8]: 62.3 fL
Mono [8]: 2.8%
Neu [8]: 28%
PT [8]: 15 s
Plat [8]: 140.3 x10_4/uL
RBC [8]: 675.8 x10_4/ul
Ret [8]: 7%
WBC [8]: 79.6 x10_2/uL
KIDNEY_L [8]: 1 g
KIDNEY_R [8]: 1 g
KIDNEY_TOTAL [8]: 1.9 g
LIVER [8]: 9.7 g
A/G [8]: 1.6
ALP [8]: 787.8 IU/L
ALT [8]: 32.4 IU/L
AST [8]: 78.8 IU/L
BUN [8]: 11.6 mg/dL
CRE [8]: 0.6 mg/dL
Ca [8]: 10 mg/dL
Cl [8]: 105 meq/L
DBIL [8]: 0.1 mg/dL
GLC [8]: 190.6 mg/dL
IP [8]: 8.7 mg/dL
K [8]: 4.2 meq/L
LDH [8]: 252.4 IU/L
Na [8]: 140.8 meq/L
PL [8]: 116.8 mg/dL
RALB [8]: 3.3 g/dL
TBIL [8]: 0.2 mg/dL
TC [8]: 59.6 mg/dL
TG [8]: 67.4 mg/dL
TP [8]: 5.3 g/dL
gamma-GTP [8]: 1.2 IU/L
